Measured values published in ChEMBL document CHEMBL1201862, “PubChem BioAssay data set” (2004).
Activity calls are given as the source filed them. Rule as the data show it, for most assays here: actives have a measured EC50 and inactives only a lower limit.

Key:
[1] = molecular target: T1, Heat shock factor protein 1 (Mus musculus, UniProt P38532); experiment: HSF1 potentiators in luciferase reporter cells, confirmation, cell-based, NIH3T3, luminescence, dose retest (AID 435004); format: functional;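 also: stress induced by proteasome inhibitor MG132 added 30 min after compound; luciferase reporter driven by HSF1 response element in NIH3T3 cells; actives raise luminescence as potentiators of the MG132 stress response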
T1 sequence (P38532 whole entry): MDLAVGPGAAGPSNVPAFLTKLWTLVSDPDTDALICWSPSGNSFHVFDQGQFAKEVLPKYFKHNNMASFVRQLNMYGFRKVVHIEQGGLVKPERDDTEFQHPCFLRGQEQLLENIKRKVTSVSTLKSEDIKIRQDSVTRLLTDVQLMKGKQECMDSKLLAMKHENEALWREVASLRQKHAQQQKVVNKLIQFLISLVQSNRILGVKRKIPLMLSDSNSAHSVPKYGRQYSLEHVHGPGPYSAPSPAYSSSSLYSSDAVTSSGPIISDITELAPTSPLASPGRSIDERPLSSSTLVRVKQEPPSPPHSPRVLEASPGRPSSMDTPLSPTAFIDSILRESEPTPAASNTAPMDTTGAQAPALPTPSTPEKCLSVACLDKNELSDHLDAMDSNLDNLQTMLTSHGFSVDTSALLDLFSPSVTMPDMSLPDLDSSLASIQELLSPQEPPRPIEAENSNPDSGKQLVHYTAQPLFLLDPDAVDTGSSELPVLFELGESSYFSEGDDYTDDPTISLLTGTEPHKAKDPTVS

[2] = C. albicans growth with fluconazole, confirmation, fluorescence, retest (AID 2467); format: functional, cell-based
[3] = NIH-3T3 fibroblast cytotoxicity, dose response, cytotoxicity control, cell-based, fluorescence, Alamar Blue, secondary assay (AID 2327); format: functional;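 also: NIH-3T3 mouse fibroblasts cultured with fluconazole at 8 µg/mL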
[4] = microbe, parasite or virus in culture; format: functional; conditions: Mycobacterium tuberculosis
[5] = Luminescence Cell-Based Dose Response HTS to Identify Inhibitors of 5'UTR Stem-Loop Driven Prion Protein mRNA Translation in H4 Neuroglioblastoma Cells. [Related pubchem assays: 1827 (Project Summary), 1813 (Primary HTS)]; format: functional
[6] = inhibitors of firefly luciferase expression or activity, dose response, H4 neuroglioma cells, luminescence (AID 1990); format: functional, cell-based
[7] = inhibitors of SNCA 5'UTR-driven reporter translation, confirmation, H4 neuroglioma cells, luminescence (AID 1988); format: functional, cell-based
INS1 = experiment: beta cell apoptosis inhibitors, cytokine rescue, dose response, luminescence, retest (AID 449756); format: functional, cell-based; conditions: Rattus norvegicus;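 also: cell death triggered by IL-1 beta plus TNF-alpha plus IFN-gamma mixture; protective hits raise ATP signal compared with cytokine alone wells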
[8] = molecular target: FAD-linked sulfhydryl oxidase ALR (Homo sapiens, UniProt P55789); experiment: inhibitors of human ALR sulfhydryl oxidase, dose response, biochemical, H2O2 detection, luminescence, cherry-pick (AID 493248)
Sequence of FAD-linked sulfhydryl oxidase ALR (P55789 whole entry): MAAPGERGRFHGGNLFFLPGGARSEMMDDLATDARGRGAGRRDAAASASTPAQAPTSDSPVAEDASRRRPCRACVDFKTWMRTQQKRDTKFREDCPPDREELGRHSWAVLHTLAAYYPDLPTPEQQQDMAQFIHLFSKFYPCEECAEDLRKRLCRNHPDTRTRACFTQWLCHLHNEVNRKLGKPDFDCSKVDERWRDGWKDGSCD

[9] = HEp-2 cell cytotoxicity, dose response, cytotoxicity control for RSV inhibitor project, HTS (AID 2410); format: functional; conditions: human respiratory syncytial virus
H4 = experiment: Luminescence Cell-Based Dose Response HTS to Identify Activators of 5'UTR Stem-Loop Driven Prion Protein mRNA Translation in H4 Neuroglioblastoma Cells. [Related pubchem assays: 1829 (Project Summary), 1814 (Primary HTS)]; format: functional; conditions: Homo sapiens
[10] = Luminescence Cell-Based Dose Confirmation HTS to Identify Activators of 5'UTR Stem-Loop Driven Alpha-Synuclein mRNA Translation in H4 Neuroglioblastoma Cells. [Related pubchem assays: 1829 (Project Summary), 1814 (Primary HTS)]; format: functional
[11] = Luminescence Cell-Based Dose Response HTS to Identify Activators of Luciferase Translation or Activity in H4 […] Cells. [Related pubchem assays: 1829 (Project Summary), 1814 (Primary HTS)]; format: functional
[12] = molecular target: T2, Rac GTPase-activating protein 1 (Homo sapiens, UniProt Q9H0H5); experiment: MgcRacGAP GTPase-activating activity inhibitors, confirmation, biochemical, ADP Hunter fluorescence, primary and confirmatory (AID 624330); format: functional
T2 sequence (Q9H0H5 whole entry): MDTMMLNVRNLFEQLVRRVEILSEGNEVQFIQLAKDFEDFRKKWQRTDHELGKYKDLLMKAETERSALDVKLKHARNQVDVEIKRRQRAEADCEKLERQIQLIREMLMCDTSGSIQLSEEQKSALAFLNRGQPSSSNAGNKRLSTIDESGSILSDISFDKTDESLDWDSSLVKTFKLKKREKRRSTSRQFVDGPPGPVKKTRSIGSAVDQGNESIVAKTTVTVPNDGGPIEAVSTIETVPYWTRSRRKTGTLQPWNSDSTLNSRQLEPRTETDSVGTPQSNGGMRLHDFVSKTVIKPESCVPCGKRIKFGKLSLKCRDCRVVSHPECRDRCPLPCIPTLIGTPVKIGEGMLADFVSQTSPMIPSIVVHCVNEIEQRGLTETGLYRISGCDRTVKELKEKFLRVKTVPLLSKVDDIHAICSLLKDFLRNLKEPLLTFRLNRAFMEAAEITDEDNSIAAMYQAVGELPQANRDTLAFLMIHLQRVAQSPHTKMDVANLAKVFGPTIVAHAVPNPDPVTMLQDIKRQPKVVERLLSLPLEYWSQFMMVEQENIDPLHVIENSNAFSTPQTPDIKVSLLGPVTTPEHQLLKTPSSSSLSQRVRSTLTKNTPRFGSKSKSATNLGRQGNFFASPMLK

[13] = Luminescence Cell-Based Dose Retest to Confirm Inhibitors of Cancer Stem Cells. [Related pubchem assays (depositor defined):AID2717, AID2721]; format: functional; conditions: Homo sapiens
[14] = cytotoxicity toward NIH3T3 fibroblasts, dose response, counter-screen, cell-based, ATP luminescence, mouse fibroblasts (AID 2010); format: functional;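 also: cells exposed to compound for about 90 hours before reading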
[15] = inhibitors of intracellular T. cruzi replication, confirmation, NIH3T3 host cells, beta-gal luminescence (AID 2044); format: functional, cell-based;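 also: intracellular parasites grown in NIH/3T3 mouse fibroblasts as host cells; luminescent beta-galactosidase reporter signal from transgenic T. cruzi replicating inside host cells; inhibitors lower the luminescence signal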

## CC(C)=NN1C(=O)c2ccccc2NC1(C)C
[1]
  EC50: > 260 µM (inactive)

## C[C@@H]1C(NC(=O)c2ccccc2)CC2CC1C2(C)C (some centres undefined)
[1]
  EC50: > 260 µM (inactive)

## O=C1c2ccccc2C(=O)N1CC(O)COc1ccc(Br)cc1 (centres undefined)
[1]
  EC50: 64.3 µM (active)

## O=[N+]([O-])c1ccc(C2[C@H]3C(c4ccccc4)=NC4(CCCC4)N23)cc1 (some centres undefined)
[2]
  EC50: > 38 µM (not active)
[3]
  EC50: > 150 µM (inactive)

## COCCCNC(=O)/C(C#N)=C/c1c(N2CCN(c3cccc(Cl)c3)CC2)nc2c(C)cccn2c1=O
[4]
  CC50: > 40 µM (active)

## COc1ccccc1N1CCN(CCCCOc2cccc3ccccc23)CC1
[4]
  CC50: > 40 µM (active)

## CCc1nnc(NC(=O)c2ccc(S(=O)(=O)NC3CCCCC3)cc2)s1
[5]
  EC50: > 120 µM (not active)
[6]
  EC50: > 120 µM (not active)
[7]
  EC50: > 120 µM (not active)

## CCC(O)CC(C(=O)NNc1ccccc1)C(=O)NNc1ccccc1 (centres undefined)
[2]
  EC50: > 38 µM (not active)
[3]
  EC50: 20.6 µM (active)

## COc1ccc(-c2cn(CCO)nc2-c2ccc(OC)cc2)cc1
[5]
  EC50: > 120 µM (not active)
[6]
  EC50: 16.1 µM (active)
[7]
  EC50: > 120 µM (not active)

## CN(CC(=O)Nc1ccc(F)c(F)c1F)c1cnccn1
[4]
  CC50: 23.5 µM (active)

## CN(C)c1cc[n+](CC(=O)Nc2ccc(Oc3ccccc3)cc2)cc1
[5]
  EC50: > 120 µM (not active)
[6]
  EC50: 17.1 µM (active)
[7]
  EC50: 14.9 µM (active)
INS1
  AC50: 4.17 µM (active)

## O=C(CN(C(=O)c1csnn1)c1ccc(F)c(Cl)c1)NCc1ccc(F)cc1
[1]
  EC50: > 260 µM (inactive)

## CCCc1cn(S(=O)(=O)c2ccc(OC)cc2OC)nc1N
[8]
  AC50: 9.53 µM (active)

## CC(=O)COc1cccc2ccc(/C=C/c3ccc(Br)s3)nc12
[9]
  CC50: 45.4 µM (active)
[1]
  EC50: 60.9 µM (active)

## COC(=O)c1cc(-c2c(C)nn(-c3ccccc3)c2C)[nH]n1
H4
  EC50: 11.2 µM (active)
[8]
  AC50: 1.2 µM (active)
[10]
  EC50: 11.8 µM (active)
[11]
  EC50: 11.5 µM (active)

## COc1ccc(-c2nc(Cn3c(SCc4ccc(F)cc4)nc4ccncc43)c(C)o2)cc1OC
[1]
  EC50: 34.7 µM (active)

## Cc1cc2c(cc1C)-c1nnnn1C(C)(C)C2
[1]
  EC50: > 260 µM (inactive)

## Cc1cnc(NC(=O)C(C)N2CCN(C)CC2)s1 (centres undefined)
[12]
  IC50: 80.4 µM (active)

## O=C(CN1C(=O)C2CC=CCC2C1=O)Nc1nc2ccc(F)cc2s1 (centres undefined)
[8]
  AC50: 0.494 µM (active)

## CC(=O)n1c2c(c3ccccc31)OC(N)=C(C#N)C2c1cccc(Cl)c1Cl (centres undefined)
[13]
  AC50: 1.57 µM (active)
[1]
  EC50: 42.4 µM (active)

## COc1ccccc1-c1cc(C(=O)NC2CCN(C)CC2)c2ccc(Cl)c(C)c2n1
[14]
  EC50: > 60 µM (not active)
[15]
  EC50: 1.4 µM (active)
[4]
  CC50: 7.01 µM (active)

## O=C1C(=CNCCN2CCNCC2)C(=O)N(C2CCCCC2)C(=O)N1C1CCCCC1
[4]
  CC50: 33.5 µM (active)

## COCCNC(=O)NC12CC3CC(CC(C3)C1)C2
[2]
  EC50: > 38 µM (not active)
[3]
  EC50: > 160 µM (inconclusive)

## O=C(NCCc1ccccc1)[C@@H]1CC=C[C@@H]2CCN(Cc3ccc(Cl)c(Cl)c3)C(=O)[C@@H]21
[4]
  CC50: 34.4 µM (active)
INS1
  AC50: 6.35 µM (active)

## Cc1ccc(S(=O)(=O)N2CCC(=O)N(C(COCc3ccc(Cl)cc3)Cc3ccccc3)CC2)cc1 (centres undefined)
[5]
  EC50: 39.1 µM (active)
[6]
  EC50: > 120 µM (not active)
[7]
  EC50: 36.4 µM (active)

## Cc1ccc(C)c(CN2C(=O)COc3ccccc32)c1
[1]
  EC50: > 260 µM (inactive)

## CCN1CCN(CC(=O)Nc2ccc(C)c(Br)c2)CC1
[12]
  IC50: 95.7 µM (active)

## CCc1ccccc1N=C(S)NNC(=O)c1ccccc1Cl
[2]
  EC50: 1.93 µM (active)
[3]
  EC50: > 150 µM (inactive)

## CCCCNC(=O)/C(=C\c1ccc([N+](=O)[O-])o1)NC(=O)c1ccccc1
[14]
  EC50: > 60 µM (inconclusive)
[2]
  EC50: 0.265 µM (active)
[15]
  EC50: 0.863 µM (active)
[3]
  EC50: > 150 µM (inactive)

## Cc1nc(SCc2cccc(F)c2)nc(O)c1C#N
[8]
  AC50: 9.69 µM (active)

## O=S(=O)(Nc1ccc(N2CCCCC2)cc1)c1ccc(F)c(F)c1
[8]
  AC50: 4.17 µM (active)

## S=C(NC1CCCCC1)NC1CC2C=CC1C2 (centres undefined)
[1]
  EC50: > 260 µM (inactive)

## COc1cc(CC(=O)OCC(=O)Nc2ccc(N(C)C)cc2)cc(OC)c1OC
[12]
  IC50: 53.3 µM (active)

## CN(C)c1cc(NC(=O)CN2CCCC2)c2ccccc2n1
[12]
  IC50: 41.6 µM (active)

## COc1ccc(C2CC(=O)c3cnc(N4CCc5ccccc54)nc3C2)cc1OC (centres undefined)
[1]
  EC50: > 260 µM (inactive)

## O=C(Cn1cccn1)N1CCCC(Nc2ccc(F)c(F)c2)C1 (centres undefined)
[8]
  AC50: 1.92 µM (active)

## COc1cc(C(C)=NNC(=O)c2ccncc2)ccc1O
[12]
  IC50: 49.6 µM (active)

## CCN(CCNC(=O)C1CCN(S(=O)(=O)CC)CC1)c1ccccc1
[8]
  AC50: 0.013 µM (active)

## Cc1ccn(Cc2nnc(S)n2Cc2ccccc2)n1
[8]
  AC50: 8.59 µM (active)

## Oc1ccc(/C(Cc2ccccn2)=N\Nc2ccccc2)c(O)c1
[8]
  AC50: 0.332 µM (active)

## O=C1CSC(=S)N1/N=C/c1cccc(C(F)(F)F)c1
[1]
  EC50: > 260 µM (inactive)

## C/C(=N/NC(=O)C1CCN(S(=O)(=O)c2ccc(C)cc2)CC1)c1cccc([N+](=O)[O-])c1
[5]
  EC50: 71 µM (active)
[6]
  EC50: 22.9 µM (active)
[7]
  EC50: 48 µM (active)

## C/C(=N/NC(=O)c1ccccc1O)c1ccc(N2C(=O)C3CCCCC3C2=O)cc1 (centres undefined)
[2]
  EC50: > 38 µM (not active)
[3]
  EC50: > 160 µM (inactive)

## COc1cc(/C=N/NC(=O)CN(Cc2ccco2)S(=O)(=O)c2ccccc2)ccc1O
[8]
  AC50: 1.13 µM (active)
[12]
  IC50: 40 µM (active)

## CN(C)c1ccc(/C=N/O)cc1
[12]
  IC50: 21.8 µM (active)

## C=Cc1ncc(OC)c2c1[nH]c1ccccc12
[1]
  EC50: 9.2 µM (active)
